# Test results published in patent publication US20190218170A1, “BRANCHED TRIALKYLAMINE PRECURSORS, INTERMEDIATES, PRODUCTS MADE THEREFROM AND PROCESSES OF MANUFACTURE” (priority 2018, published 2019).
# Like-named read-outs stand apart in the source and are kept apart here.
# Assays:
# [1] = Ready Biodegradability CO2 Evolution Test OECD 301B
# Description: The biodegradability of the branched aldehyde intermediates of Example 2 (4-ethyl-2-methyloctanal) and Example 25 (2,4-diethyl-2-octenal) were determined by the Ready Biodegradability—CO2 Evolution Test—Degradation of test compound according to OECD Guidelines for Testing of Chemicals CO2 Evolution Test 301B.
# zein protein = system: zein protein
# Description: Amine oxides with linear and branched hydrophobes from Examples 65 and 66 were compared in a screen to predict mildness of surfactants. There is a correlation between the ability of a surfactant to denature a protein and the skin irritation potential of that surfactant. The relationship is believed to result from surfactant binding to proteins like keratin, followed by the denaturation of these proteins, leading to skin irritation. A common screening test involves measuring the amount of zein (a corn protein which is insoluble in water) solubilized by a surfactant solution, the Zein Solubilization Test (Moore et al., 2003 and references therein)
# For the test, 0.0750 g of zein protein is transferred into a 1.5 mL centrifuge tube. To this 1.5 mL of 1% surfactant solution is added, mixed, and placed in a 30 C incubator with mild stirring for 30 minutes. After 30 minutes has elapsed, the tube is centrifuged for 30 min at 3600 rpm. The solution is filtered through a pre-weighed 8 micron filter paper, and then dried overnight in a 50° C. oven. The insoluble zein residue is then weighed and the wt % Zein dissolved is calculated using the equation below. Each solution is analyzed in triplicate. The Zein score is normalized to a standard included in each set of tests, in this case LAE10.
# % zein dissolved=(total zein added−total zein after drying Total zein added)×100
# [2] = High-shear foaming of N-alkyl-N-methylglucamines in commercial blender; type: physicochemical; conditions: 1 wt % test substance in 10 wt % SDS, diluted to 0.05 wt % surfactant
# Description: The high-shear foaming behavior of linear and branched N-alkyl-N glucamines was investigated, as this can have an impact on their performance in home care applications. […] The solutions were heated to 80° C., ultrasonicated for 1 h, and cooled to room temperature. Finally, the as-obtained solutions were diluted with MilliQ water to obtain a 0.05 wt % surfactant solution. In agreement with the literature on branched hydrophobes, the high-shear foaming tests performed in the commercial blender indicate that the linear N-decyl-N-methylglucamine (IC10 NMG) solution foams relatively more than its branched counterpart solution. For all solutions, the initial foam volume is between 40 and 53 mL. Lauramine oxide (LAO) appears to be foamier than the N-alkyl-N-methylglucamines.
# [3] = Solubility of N-alkyl-N-methylglucamines in MilliQ water and SLS/SDS solution; type: physicochemical; conditions: for Solubility in pure MilliQ / Solubility in 10 wt % SLS: heated to 80° C., ultrasonicated, cooled to room temperature; for Solubility in pure MilliQ: pH 9-9.5; for Solubility in 10 wt % SLS: pH 10.8-11.1; for Solubility in 10 wt % SDS: pH 11.8-12.1
# Description: The solubility of three N-alkyl-N-methylglucamines (i.e., N-(2-ethyl-hexyl)-N-methylglucamine, N-decyl-N-methylglucamine, and N-(4-ethyl-2-methyloctyl)-N-methylglucamine) was investigated in pure MilliQ water and in a 10 wt % sodium lauryl sulfate (SLS) solution. The mixtures were heated to 80° C., ultrasonicated, and cooled to room temperature.
# Candida albicans = assay: Microplate dilution assay MIC/MLC; type: cell-based; conditions: for MIC < 10%: growth less than 10% of control; for MIC < 50%: growth less than 50% of control; for MLC: minimum lethal concentration
# Description: (§1) The minimum inhibitory concentration (MIC) and the minimum lethal concentration (MLC) of the chemicals were determined using a microplate dilution assay. Quats were provided as aqueous solutions, while Triclosan and Chloroxylenol were provide as powders which were first dissolved at 5 weight percent in absolute ethanol. A two-fold serial dilution series of each test chemical was prepared in Trypticase Soy Broth at 20% of the standard concentration (TSB20) and in Sabouraud Dextrose Broth at 20% of the standard concentration (SDB20) in 96-well micro-titer plates. A total of 10 dilutions were prepared and four replicate tests were performed for each dilution. […] Control solutions containing only media were included for each plate. Suspensions of Staphylococcus aureus, Escherichia coli, and Candida albicans were prepared from one-day old agar plate cultures in Butterfields Phosphate Diluent to a concentration of approximately 10^7 to 10^8 cells per milliliter. Each test well was inoculated with the diluted culture suspensions at a concentration of 10^3 to 10^4 cells per well and then incubated at 32° C. with shaking at 150 rpm for approximately 24 hours, after which the optical density of each well was determined spectrophotometrically at 600 nm. Wells containing uninoculated media without test chemical were included in each plate as negative controls and, following inoculation, as positive controls.
# (§2) Selected wells at or below the MIC were tested for MLC by spotting three microliters from each replicate well onto Trypticase Soy agar for S. aureus and E. coli, or Sabouraud Dextrose agar for C. albicans.
# Staphylococcus aureus = assay: Microplate dilution assay MIC/MLC; type: cell-based; conditions: for MIC < 10%: growth less than 10% of control; for MIC < 50%: growth less than 50% of control; for MLC: minimum lethal concentration
# Description: as §1, §2
# Escherichia coli = assay: Microplate dilution assay MIC/MLC; type: cell-based; conditions: for MIC < 10%: growth less than 10% of control, 24 hours, 32° C.; for MIC < 50%: growth less than 50% of control; for MLC: minimum lethal concentration
# Description: as §1, §2
# [4] = Foaming of amine oxide added to commercial laundry liquid (Waring blender); type: physicochemical; set-up: Difference: unit: ml; conditions: for Difference: initial minus 5 min foam volume
# Description: The surface foam volume and foam persistence of solutions of the amine oxides with linear and branched hydrophobes from Examples […] were compared. A commercial laundry liquid was diluted in deionized water according to the dosing instructions; 4.2 ml/L Persil Original. The diluted detergent was supplemented with 0%, 2%, 5% (based on wt laundry liquid) of LAO or Branched C12 AO, (2,4-diethyl-N,N-dimethyloctan-1-amine oxide, Example 66), and the solutions mixed briefly and used immediately. 250 ml of each test solution was added the beaker of a Waring blender, capped, and then blended on High for 30 seconds and immediately transferred to a 1 L graduated cylinder. The total volume of foam plus liquid, as well as the liquid layer alone was recorded. The foam and liquid volumes were recorded again after 5 minutes. All tests were performed in triplicate.
# [5] = Foam height, high shear (Waring blender); type: physicochemical
# Description: A 0.05 wt % (actives basis) solution of the test surfactant was made in deionized water. 250 ml of the test solution was added the beaker of a Waring blender, capped, and then blended on High for 30 seconds and immediately transferred to a 1 L graduated cylinder. The total volume of foam plus liquid, as well as the liquid layer alone was recorded. The foam and liquid volumes were recorded again after 5 minutes.
# [6] = Draves Wetting Test (ASTM D2281-68); type: physicochemical; conditions: 0.05 wt % (actives basis) in DI water; average of 3 measurements
# Description: A 0.05 wt % (actives basis) solution of amine oxide in deionized (DI) water was used to determine the Draves wet-out time (WOT) in seconds. 0.75 g of surfactant was dispersed in 1,500 ml of DI water. The wet-out time (WOT) in seconds is recorded in Table 14 (average of 3 measurements). LAO is Lauramine oxide (linear hydrophobe), Sigma catalog number 40236.
compound,measurement,setting,value
"CC(=O)[O-].[Na+] [sodium acetate, reference compound]",Biodegradation (%),[1]; Day 0,0%
same,Biodegradation (%),[1]; Day 2,32%
same,Biodegradation (%),[1]; Day 6,52%
same,Biodegradation (%),[1]; Day 7,54%
same,Biodegradation (%),[1]; Day 9,60%
same,Biodegradation (%),[1]; Day 14,66%
same,Biodegradation (%),[1]; Day 19,69%
same,Biodegradation (%),[1]; Day 23,71%
same,Biodegradation (%),[1]; Day 28,72%
same,Biodegradation (%),[1]; Day 29 (first line),74%
same,Biodegradation (%),[1]; Day 29 (second line),78%
Sodium lauryl ether sulfate [SLES],Zein score - normalized to LAE10,zein protein,3.488
CCCCCCCCCCN(C)C[C@H](O)[C@@H](O)[C@H](O)[C@H](O)CO [N-decyl-N-methylglucamine],Foam volume after 5 seconds stirring at speed 1,[2],50 mL
same,Foam volume after 5 minutes settling,[2],49 mL
same,Solubility in pure MilliQ,[3],<1000 ppm
same,Solubility in 10 wt % SLS,[3],>1000 ppm
same,Solubility in 10 wt % SDS,[3],≥1%
"CCCCC(CC)CC(CC)C[N+](C)(C)Cc1ccccc1.[Cl-] (stereo not shown) [BAC-b12, N-benzyl-2,4-diethyl-N,N-dimethyloctan-1-aminium chloride]",MIC < 10%,Candida albicans,0.0063 Weight percent
same,MIC < 50%,Candida albicans,0.0063 Weight percent
same,MLC,Candida albicans,0.0063 Weight percent
same,MIC < 10%,Staphylococcus aureus,0.00039 Weight percent
same,MIC < 50%,Staphylococcus aureus,0.00039 Weight percent
same,MLC,Staphylococcus aureus,0.00078 Weight percent
same,MIC < 10%,Escherichia coli,0.0063 Weight percent
same,MIC < 50%,Escherichia coli,0.0063 Weight percent
same,MLC,Escherichia coli,0.0063 Weight percent
Cc1cc(O)cc(C)c1Cl [Chloroxylenol],MIC < 10%,Candida albicans,0.0083 Weight percent
same,MIC < 50%,Candida albicans,0.0083 Weight percent
same,MLC,Candida albicans,>0.0083 Weight percent
same,MIC < 10%,Staphylococcus aureus,0.0042 Weight percent
same,MIC < 50%,Staphylococcus aureus,0.0042 Weight percent
same,MLC,Staphylococcus aureus,>0.0083 Weight percent
same,MIC < 10%,Escherichia coli,>0.0083 Weight percent
same,MIC < 50%,Escherichia coli,>0.0083 Weight percent
same,MLC,Escherichia coli,>0.0083 Weight percent
Oc1cc(Cl)ccc1Oc1ccc(Cl)cc1Cl [Triclosan],MIC < 10%,Candida albicans,0.0016 Weight percent
same,MIC < 50%,Candida albicans,0.0016 Weight percent
same,MLC,Candida albicans,>0.0016 Weight percent
same,MIC < 10%,Staphylococcus aureus,0.00002 Weight percent
same,MIC < 50%,Staphylococcus aureus,0.00002 Weight percent
same,MLC,Staphylococcus aureus,0.00003 Weight percent
same,MIC < 10%,Escherichia coli,0.00010 Weight percent
same,MIC < 50%,Escherichia coli,0.00010 Weight percent
same,MLC,Escherichia coli,0.00010 Weight percent
"CCCCC(CC)CC(C)C=O (stereo not shown) [Example 2, 4-ethyl-2-methyloctanal]",Biodegradation (%),[1]; Day 0,0%
same,Biodegradation (%),[1]; Day 2,0%
same,Biodegradation (%),[1]; Day 6,15%
same,Biodegradation (%),[1]; Day 7,21%
same,Biodegradation (%),[1]; Day 9,31%
same,Biodegradation (%),[1]; Day 14,47%
same,Biodegradation (%),[1]; Day 19,54%
same,Biodegradation (%),[1]; Day 23,56%
same,Biodegradation (%),[1]; Day 28,57%
same,Biodegradation (%),[1]; Day 29 (first line),57%
same,Biodegradation (%),[1]; Day 29 (second line),61%
"CCCCC(CC)CC(CC)C[N+](C)(C)[O-] (stereo not shown) [Example 66, 2,4-diethyl-N,N-dimethyloctan-1-amine oxide]",Zein score - normalized to LAE10,"zein protein; corn, 30 min, 1 %",0.018
same,Foam volume After 5 min,[4]; Persil + 2% additive,303 mL
same,Difference,[4]; Persil + 2% additive,257
same,Difference,[4]; Persil + 5% additive,280
same,Initial foam volume,[4]; Persil Original 4.2 ml/L + 2% additive,560 mL
same,Foam volume (ml) 5 min,"[5]; 0.05 wt % in deionized water, after 5 minutes",0 mL
same,Foam volume (ml) Initial,"[5]; 0.05 wt % in deionized water, blended on High 30 seconds",370 mL
same,% decrease,"[5]; foam volume, initial to 5 min",100%
same,Wet out time,[6],>300 s
CCCCC(CC)CC(C)CN(C)C[C@H](O)[C@@H](O)[C@H](O)[C@H](O)CO (stereo partly shown) [N-(4-ethyl-2-methyloctyl)-N-methylglucamine],Solubility in pure MilliQ,[3],<1000 ppm
same,Solubility in 10 wt % SLS,[3],>1000 ppm
same,Solubility in 10 wt % SDS,[3],≥1%
CCCCC(CC)CN(C)C[C@H](O)[C@@H](O)[C@H](O)[C@H](O)CO (stereo partly shown) [bC10 NMG],Foam volume after 5 seconds stirring at speed 1,[2],40 mL
same,Foam volume after 5 minutes settling,[2],38 mL
"CCCCC(CC)CC(C=O)CC (stereo not shown) [Example 25, 2,4-diethyloctanal]",Biodegradation (%),[1]; Day 0,0%
same,Biodegradation (%),[1]; Day 2,0%
same,Biodegradation (%),[1]; Day 6,0%
same,Biodegradation (%),[1]; Day 7,9%
same,Biodegradation (%),[1]; Day 9,27%
same,Biodegradation (%),[1]; Day 14,48%
same,Biodegradation (%),[1]; Day 19,53%
same,Biodegradation (%),[1]; Day 23,53%
same,Biodegradation (%),[1]; Day 28,55%
same,Biodegradation (%),[1]; Day 29 (first line),55%
same,Biodegradation (%),[1]; Day 29 (second line),57%
CCCCCCCCCCCC[N+](C)(C)Cc1ccccc1.[Cl-] [BAC-12 linear],MIC < 10%,Candida albicans,0.0016 Weight percent
same,MIC < 50%,Candida albicans,0.00078 Weight percent
same,MLC,Candida albicans,0.0016 Weight percent
same,MIC < 10%,Staphylococcus aureus,0.0002 Weight percent
same,MIC < 50%,Staphylococcus aureus,0.0002 Weight percent
same,MLC,Staphylococcus aureus,0.0002 Weight percent
same,MIC < 10%,Escherichia coli,0.00078 Weight percent
same,MIC < 50%,Escherichia coli,0.00078 Weight percent
same,MLC,Escherichia coli,0.00078 Weight percent
"CCCCC(CC)CN(C)C[C@H](O)[C@@H](O)[C@H](O)[C@H](O)CO (stereo partly shown) [N-(2-ethyl-hexyl)-N-methylglucamine, N-(2-ethylhexyl)-N-methylglucamine]",Solubility in 10 wt % SLS,[3],>1000 ppm
same,Solubility in 10 wt % SDS,[3],≥1%
